Starred links: 1 amine or outer side, 2 acyl side, 3 side chain; linkers in the order of their positions; H or OH if unused. Non-standard residues stand in square brackets, D forms with d. Residues, ends and D or L forms follow the SMILES beside them. Groups on a side chain read outwards from the residue. *: point of attachment. C20 diacid = O=C(O)CCCCCCCCCCCCCCCCCCC(=O)*; γGlu = O=C(O)[C@H](CCC(=O)[*:2])N[*:1]; NMeI = CC[C@H](C)[C@H](NC)C(=O)O; Nle = CCCC[C@H](N)C(=O)O; AEEA = NCCOCCOCC(=O)O; Aib = CC(C)(N)C(=O)O
Legend:
[1] = Chemical stability of purified peptides (RP-UHPLC main peak purity loss); format: physicochemical
In short: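 Purity loss is the drop in RP-UHPLC main-peak area fraction (215 nm detection, C8 column at 50 °C) from time zero to day 14 and/or day 28 at 40 °C. Samples held roughly 1.0 mg/ml peptide in 50 mM phosphate, pH 7.5, with other pH targets also tested.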

[2] = Thioflavin T fibril formation assay of purified peptides; format: physicochemical; parameters: key: Amyloid fibril formation detected by an increase in ThT fluorescence was denoted with "Yes"; samples without increasing ThT fluorescence hence not forming amyloid fibrils were denoted "No"
In short: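 Fibril formation read as rising ThT emission at 480 nm (450 nm excitation), 4 µM ThT, over 96 h at 40°C with alternating 5-min rest and 700 rpm shaking cycles, in triplicate. Samples were 200 µM compound in 50 mM phosphate at various pH values, or co-formulated at 200 µM in semaglutide product at pH 7.4.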

PK in mice = format: in vivo; parameters: T½ / MRT: unit: h; conditions: Mouse
Description: Lean male NMRI/RjHan mice were obtained from JanVier (JanVier Labs, France) at 6 weeks of age. The animals were single housed under a 12/12 h dark-light cycle, light off at 3 PM. Room temperature was controlled to 22°C ± 1°C, with 60 % ± 20% humidity. Animals had ad libitum access to regular rodent chow (Altromin 1324, Brogaarden, Denmark) and tap water.
After 2 weeks of acclimatization, the animals were randomized into treatment groups (n=9 per group) based on body weight. Animals were dosed IV with one peptide and SC with another peptide (15 or 50 nmol/kg) Plasma samples were collected for PK analysis at times 0.17, 1, 3, 6, 24, 30, 48, 72 and 96 hours post dosing in a sparse sampling design with 3 mice per group per timepoint. Plasma samples were analyzed using LC-MSMS and PK parameters were estimated by Non-Compartmental Analysis (NCA).

[3] = pH 7.5, 40°C, 14 days, first value of cell
[4] = pH 7.5, 40°C, 28 days, second value of cell

With `CC[C@H](C)[C@H](N)C(=O)N[C@H](C(=O)N[C@@H](CC(C)C)C(=O)N[C@@H](CO)C(=O)N[C@@H](CC(C)C)C(=O)N[C@@H](CC(=O)O)C(=O)N[C@H](C(=O)N1CCC[C@H]1C(=O)N[C@H](C(=O)NCC(=O)N[C@@H](CC(C)C)C(=O)N[C@@H](CC(C)C)C(=O)N[C@@H](CCC(N)=O)C(=O)N[C@H](C(=O)N[C@@H](CC(C)C)C(=O)N[C@@H](CC(C)C)C(=O)N[C@@H](CCC(=O)O)C(=O)N[C@@H](CCC(N)=O)C(=O)N[C@@H](C)C(=O)N[C@@H](CCCNC(=N)N)C(=O)N[C@@H](C)C(=O)N[C@@H](CCCNC(=N)N)C(=O)N[C@@H](C)C(=O)N[C@@H](C)C(=O)N[C@@H](CCCNC(=N)N)C(=O)N[C@@H](CCC(=O)O)C(=O)N[C@@H](CCC(N)=O)C(=O)N[C@@H](C)C(=O)N[C@@H](CCCCNC(=O)COCCOCCNC(=O)COCCOCCNC(=O)CC[C@H](NC(=O)CC[C@H](NC(=O)CCCCCCCCCCCCCCCCCCC(=O)O)C(=O)O)C(=O)O)C(=O)NC(C)(C)C(=O)N[C@@H](CC(N)=O)C(=O)N[C@@H](C)C(=O)N[C@@H](CCC(=O)O)C(=O)N[C@H](C(=O)N[C@@H](CC(C)C)C(=O)N[C@@H](C)C(=O)N[C@@H](CCC(=O)O)C(=O)N[C@H](C(N)=O)C(C)C)[C@@H](C)CC)[C@@H](C)CC)[C@@H](C)CC)C(C)C)C(C)C` [SEQ ID NO: 19] (H-IVLSLDVPIGLLQILLEQARARAAREQAK([AEEA-AEEA-γGlu-γGlu-C20 diacid])[Aib]NAEILAEV-NH2) the “Chemical stability at pH 7.5 after 14 days at 40°C (% degradation)” value [1, 3] was -1.5%, the “Chemical stability at pH 7.5 after 28 days at 40°C (% degradation)” value [1, 4] was -2.6% and the “Fibrillation (pH 7.5)” value ([2]; pH 7.5, ThT assay) was “No”.
With `CCCC[C@H](NC(=O)[C@@H](NC(=O)[C@H](CCC(=O)O)NC(=O)[C@H](C)NC(=O)[C@H](CC(N)=O)NC(=O)[C@H](CCC(=O)O)NC(=O)[C@H](CCCCNC(=O)COCCOCCNC(=O)COCCOCCNC(=O)CC[C@H](NC(=O)CC[C@H](NC(=O)CCCCCCCCCCCCCCCCCCC(=O)O)C(=O)O)C(=O)O)NC(=O)[C@H](C)NC(=O)[C@H](CCC(N)=O)NC(=O)[C@H](CCC(=O)O)NC(=O)[C@H](CCCNC(=N)N)NC(=O)[C@H](C)NC(=O)[C@H](C)NC(=O)[C@H](CCCNC(=N)N)NC(=O)[C@H](C)NC(=O)[C@H](CCCNC(=N)N)NC(=O)[C@H](C)NC(=O)[C@H](CCC(N)=O)NC(=O)[C@H](CO)NC(=O)[C@H](CC(C)C)NC(=O)[C@H](CC(C)C)NC(=O)[C@@H](NC(=O)[C@H](CCC(N)=O)NC(=O)[C@H](CC(C)C)NC(=O)[C@H](CC(C)C)NC(=O)CNC(=O)[C@@H](NC(=O)[C@@H]1CCCN1C(=O)[C@@H](NC(=O)[C@H](CC(=O)O)NC(=O)[C@H](CC(C)C)NC(=O)[C@H](CO)NC(=O)[C@H](CC(C)C)NC(=O)[C@@H](NC(=O)[C@@H](NC)[C@@H](C)CC)C(C)C)C(C)C)[C@@H](C)CC)[C@@H](C)CC)[C@@H](C)CC)C(=O)N[C@@H](C)C(=O)N[C@@H](CCC(=O)O)C(=O)N[C@H](C(N)=O)C(C)C` [compound 101] (H-[NMeI]VLSLDVPIGLLQILLSQARARAAREQAK([AEEA-AEEA-γGlu-γGlu-C20 diacid])ENAEI[Nle]AEV-NH2) the “Chemical stability at pH 7.5 after 14 days at 40°C (% degradation)” value ([1]; pH 7.5, 14 days, 40°C) was -2.2%, the “Chemical stability at pH 7.5 after 28 days at 40°C (% degradation)” value ([1]; pH 7.5, 28 days, 40°C) was -4.3% and the “Fibrillation (pH 7.5)” value ([2]; pH 7.5) was “No”.
For `CCCC[C@H](NC(=O)[C@@H](NC(=O)[C@H](CCC(=O)O)NC(=O)[C@H](C)NC(=O)[C@H](CC(N)=O)NC(=O)C(C)(C)NC(=O)[C@H](CCCCNC(=O)COCCOCCNC(=O)COCCOCCNC(=O)CC[C@H](NC(=O)CC[C@H](NC(=O)CCCCCCCCCCCCCCCCCCC(=O)O)C(=O)O)C(=O)O)NC(=O)[C@H](C)NC(=O)[C@H](CCC(N)=O)NC(=O)[C@H](CCC(=O)O)NC(=O)[C@H](CCCNC(=N)N)NC(=O)[C@H](C)NC(=O)[C@H](C)NC(=O)[C@H](CCCNC(=N)N)NC(=O)[C@H](C)NC(=O)[C@H](CCCNC(=N)N)NC(=O)[C@H](C)NC(=O)[C@H](CCC(N)=O)NC(=O)[C@H](CO)NC(=O)[C@H](CC(C)C)NC(=O)[C@H](CC(C)C)NC(=O)[C@@H](NC(=O)[C@H](CCC(N)=O)NC(=O)[C@H](CC(C)C)NC(=O)[C@H](CC(C)C)NC(=O)CNC(=O)[C@@H](NC(=O)[C@@H]1CCCN1C(=O)[C@@H](NC(=O)[C@H](CC(=O)O)NC(=O)[C@H](CC(C)C)NC(=O)[C@H](CO)NC(=O)[C@H](CC(C)C)NC(=O)[C@@H](NC(=O)[C@@H](N)[C@@H](C)CC)C(C)C)C(C)C)[C@@H](C)CC)[C@@H](C)CC)[C@@H](C)CC)C(=O)N[C@@H](C)C(=O)N[C@@H](CCC(=O)O)C(=O)N[C@H](C(N)=O)C(C)C` [compound 237] (H-IVLSLDVPIGLLQILLSQARARAAREQAK([AEEA-AEEA-γGlu-γGlu-C20 diacid])[Aib]NAEI[Nle]AEV-NH2), the “Chemical stability at pH 7.5 after 14 days at 40°C (% degradation)” value ([1]; pH 7.5, 14 days, 40°C) was -1.1%, the “Chemical stability at pH 7.5 after 28 days at 40°C (% degradation)” value ([1]; pH 7.5, 28 days, 40°C) was -2.8% and the “Fibrillation (pH 7.5)” value ([2]; pH 7.5) was “No”.
With `CC[C@H](C)[C@H](N)C(=O)N[C@H](C(=O)N[C@@H](CC(C)C)C(=O)N[C@@H](CO)C(=O)N[C@@H](CC(C)C)C(=O)N[C@@H](CC(=O)O)C(=O)N[C@H](C(=O)N1CCC[C@H]1C(=O)N[C@H](C(=O)NCC(=O)N[C@@H](CC(C)C)C(=O)N[C@@H](CC(C)C)C(=O)N[C@@H](CCC(N)=O)C(=O)N[C@H](C(=O)N[C@@H](CC(C)C)C(=O)N[C@@H](CC(C)C)C(=O)N[C@@H](CCC(=O)O)C(=O)N[C@@H](CCC(N)=O)C(=O)N[C@@H](C)C(=O)N[C@@H](CCCNC(=N)N)C(=O)N[C@@H](C)C(=O)N[C@@H](CCCNC(=N)N)C(=O)N[C@@H](C)C(=O)N[C@@H](C)C(=O)N[C@@H](CCCNC(=N)N)C(=O)N[C@@H](CCC(=O)O)C(=O)N[C@@H](CCC(N)=O)C(=O)N[C@@H](C)C(=O)N[C@@H](CCCCNC(=O)COCCOCCNC(=O)COCCOCCNC(=O)CC[C@H](NC(=O)CC[C@H](NC(=O)CCCCCCCCCCCCCCCCCCC(=O)O)C(=O)O)C(=O)O)C(=O)N[C@@H](CCC(=O)O)C(=O)N[C@@H](CC(N)=O)C(=O)N[C@@H](C)C(=O)N[C@@H](CCC(=O)O)C(=O)N[C@H](C(=O)N[C@@H](CC(C)C)C(=O)N[C@@H](C)C(=O)N[C@@H](CCC(=O)O)C(=O)N[C@H](C(N)=O)C(C)C)[C@@H](C)CC)[C@@H](C)CC)[C@@H](C)CC)C(C)C)C(C)C` [SEQ ID NO: 17] (H-IVLSLDVPIGLLQILLEQARARAAREQAK([AEEA-AEEA-γGlu-γGlu-C20 diacid])ENAEILAEV-NH2) the “Chemical stability at pH 7.5 after 14 days at 40°C (% degradation)” value [1, 3] was -1.6%, the “Chemical stability at pH 7.5 after 28 days at 40°C (% degradation)” value [1, 4] was -2.6% and the “Fibrillation (pH 7.5)” value ([2]; pH 7.5, ThT assay) was “No”.
For `CC[C@H](C)[C@H](NC)C(=O)N[C@H](C(=O)N[C@@H](CC(C)C)C(=O)N[C@@H](CO)C(=O)N[C@@H](CC(C)C)C(=O)N[C@@H](CC(=O)O)C(=O)N[C@H](C(=O)N1CCC[C@H]1C(=O)N[C@H](C(=O)NCC(=O)N[C@@H](CC(C)C)C(=O)N[C@@H](CC(C)C)C(=O)N[C@@H](CCC(N)=O)C(=O)N[C@H](C(=O)N[C@@H](CC(C)C)C(=O)N[C@@H](CC(C)C)C(=O)N[C@@H](CCC(=O)O)C(=O)N[C@@H](CCC(N)=O)C(=O)N[C@@H](C)C(=O)N[C@@H](CCCNC(=N)N)C(=O)N[C@@H](C)C(=O)N[C@@H](CCCNC(=N)N)C(=O)N[C@@H](C)C(=O)N[C@@H](C)C(=O)N[C@@H](CCCNC(=N)N)C(=O)N[C@@H](CCC(=O)O)C(=O)N[C@@H](CCC(N)=O)C(=O)N[C@@H](C)C(=O)N[C@@H](CCCCNC(=O)COCCOCCNC(=O)COCCOCCNC(=O)CC[C@H](NC(=O)CC[C@H](NC(=O)CCCCCCCCCCCCCCCCCCC(=O)O)C(=O)O)C(=O)O)C(=O)N[C@H](C(=O)N[C@@H](CC(N)=O)C(=O)N[C@@H](C)C(=O)N[C@@H](CCC(=O)O)C(=O)N[C@H](C(=O)N[C@@H](CC(C)C)C(=O)N[C@@H](C)C(=O)N[C@@H](CCC(=O)O)C(=O)N[C@H](C(N)=O)C(C)C)[C@@H](C)CC)[C@@H](C)O)[C@@H](C)CC)[C@@H](C)CC)C(C)C)C(C)C` [SEQ ID NO: 5] (H-[NMeI]VLSLDVPIGLLQILLEQARARAAREQAK([AEEA-AEEA-γGlu-γGlu-C20 diacid])TNAEILAEV-NH2), the MRT (PK in mice) was 21, the T½ (PK in mice) was 14.3 and the “Fibrillation (pH 7.5)” value ([2]; pH 7.5, ThT assay) was “No”.

From patent EP4810052A2, “HCRHR2 SELECTIVE POLYPEPTIDES” (Gubra A/S, priority 2023, dated 2026)
